Data reported in patent US10675303B2, “Extracellular matrix compositions for the treatment of cancer” (ADAPTIVE BIOLOGIX, INC., priority 2008, dated 2020).

Columns and labels:
C6 cells = experiment: Tumor growth of C6 cells in nude mice; assay type: in vivo; settings: compared to no treatment control (FIG. 12)
Description: (§1) Tumor growth of B16 cells, C6 cells, or MDA435 cells in the presence or absence of ECM, and with or without cisplatin, were examined in nude mice. Cells, ECM and Cisplatin were injected simultaneously subcutaneously in the lower haunch of a nude mouse. Tumor growth was followed over time using photography, measurements of length and width, then finally by weight. FIGS. 8 and 9 show the growth of tumors from C6 cells in nude mice in the presence (FIG. 9) and absence (FIG. 8) of ECM on day 14 post-injection. FIGS. 10 and 11 show the growth of tumors from C6 cells in nude mice in the presence of ECM with cisplatin (FIG. 10) and cisplatin without ECM (FIG. 11) of ECM on day 14 post-injection.

MDA435 cells = experiment: Tumor growth of MDA435 cells in nude mice; assay type: in vivo
Description: as §1

For `N.N.[Cl][Pt][Cl]` [cisplatin], the “tumor growth of C6 cells over 18 days” value (C6 cells) was “no growth”, the “tumor growth of MDA435 cells over 25 days” value (MDA435 cells; nude mice, compared to no treatment control (FIG. 14)) was “reduction in tumor mass to zero” and the “tumor growth of MDA435 cells in nude mice” value (MDA435 cells; versus no treatment control with palpable tumors (FIGS. 13A-D)) was “reduced or no tumor growth”.
